Test results taken from patent publication US20220348662A1, “USE OF FGFR INHIBITORS IN FGFR-GENETICALLY ALTERED CANCERS TO ENHANCE PATIENT RESPONSE TO IMMUNE CHECKPOINT INHIBITORS IN SEQUENTIAL TREATMENT SETTINGS” (JANSSEN PHARMACEUTICA NV, priority 2019, published 2022).

Key:
[1] = system: CD38+ T cells in peripheral blood; test: BLC2002 phase 1b immune cell profiling of blood by flow cytometry (T cell activation); type: in vivo, human; conditions: FIG. 4c; E8RJ cohort at C1D15, erdafitinib treatment alone (run-in)
Method: Blood for immune cell profiling were collected at four time points (C1D1, C1D15, C2D1 and C3D1) and subjected to flow cytometry analysis on a real time basis. T cell activation is quantified as fold increase in the proportions of 1) CD38+CD3, CD38+CD4, or CD38+CD8 T cells out of lymphocytes or CD3 T cell populations, and 2) CD38+ cells out of CD4+ or CD8+T cell populations, compared to the baseline proportion levels at C1D1.
Longitudinal blood samples were analyzed from DL2A (E8J cohort: Erda 8 mg+cetrelimab 240 mg), DL2B (E8RJ cohort: Erda 8 mg 28 days run-in +cetrelimab 240 mg), and DL2 (EJ cohort: Erda 8 mg with the potential dose adjustments to 9 mg depending on phosphate levels measured on C1D15+cetrelimab 240 mg).

[2] = system: advanced urothelial carcinoma; conditions: luminal 1 subtype compared with other bladder cancer subtypes; cited from earlier work

Molecule	proportion of CD38+CD8 T cells compared to baseline C1D1 [1]	response rate by bladder cancer molecular subtype [2]
COc1cc(OC)cc(N(CCNC(C)C)c2ccc3ncc(-c4cnn(C)c4)nc3c2)c1 [erdafitinib, N-(3,5-dimethoxyphenyl)-N′-(1-methylethyl)-N-[3-(1-methyl-1H-pyrazol-4-yl)quinoxalin-6-yl]ethane-1,2-diamine]	dramatically increased	–
atezolizumab: checkpoint inhibitor; antibody that blocks the interaction between PD-1 and PD-L1	–	lowest response rate
nivolumab: checkpoint inhibitor; antibody that blocks the interaction between PD-1 and PD-L1	–	lowest response rate
